Laboratory results published in US9695155B2, “Herbicidal substituted pyrimidinyloxy benzene compounds” (E. I. DU PONT DE NEMOURS AND COMPANY, priority 2013, dated 2017).

How the values were obtained:
[1] = tested on: oilseed rape; assay: Test C postemergence; assay type: in vivo, Brassica napus
Outline: (§1)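 Seeds were sown in loam–sand blend and sprayed preemergence, while plants at 1- to 4-leaf stage (2–18 cm) in peat-based medium received postemergence sprays; test chemicals were formulated in a non-phytotoxic solvent with surfactant. After 13–15 days in a greenhouse, injury was rated visually against controls, 0 (no effect) to 100 (complete control).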

[2] = tested on: galium; assay: Test C postemergence; assay type: in vivo, Galium aparine
Outline: as §1

[3] = tested on: lambsquarters; assay: Test C postemergence; assay type: in vivo, Chenopodium album
Outline: as §1

[4] = tested on: wild oat; assay: Test C postemergence; assay type: in vivo, Avena fatua
Outline: as §1

[5] = tested on: wheat; assay: Test A preemergence; assay type: in vivo, Triticum aestivum
Outline: (§2)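 Visual injury scored 0–100 (100 = complete control) against untreated controls about 10 days after treatment in a greenhouse. Test chemicals, formulated with surfactant in non-phytotoxic solvent, were sprayed on soil preemergence or on 2-10 cm, one- to two-leaf plants postemergence.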

[6] = tested on: velvetleaf; assay: Test A postemergence; assay type: in vivo, Abutilon theophrasti; settings: 0 to 100 scale where 0 is no effect and 100 is complete control
Outline: as §2

[7] = tested on: pigweed; assay: Test A postemergence; assay type: in vivo, Amaranthus retroflexus; settings: 0 to 100 scale where 0 is no effect and 100 is complete control
Outline: as §2

[8] = tested on: barnyardgrass; assay: Test C postemergence; assay type: in vivo, Echinochloa crus-galli
Outline: as §1

[9] = tested on: giant foxtail; assay: Test A preemergence; assay type: in vivo, Setaria faberii
Outline: as §2

[10] = tested on: barnyardgrass; assay: Test A preemergence; assay type: in vivo, Echinochloa crus-galli
Outline: as §2

[11] = tested on: waterhemp; assay: Test C postemergence; assay type: in vivo, Amaranthus rudis
Outline: as §1

[12] = tested on: large (Lg) crabgrass; assay: Test C postemergence; assay type: in vivo, Digitaria sanguinalis
Outline: as §1

[13] = tested on: pigweed; assay: Test A preemergence; assay type: in vivo, Amaranthus retroflexus
Outline: as §2

[14] = tested on: blackgrass; assay: Test C postemergence; assay type: in vivo, Alopecurus myosuroides
Outline: as §1

[15] = tested on: johnsongrass; assay: Test C postemergence; assay type: in vivo, Sorghum halepense
Outline: as §1

[16] = 16 g ai/ha, postemergence, 0 is no effect, 100 is complete control
[17] = 31 g ai/ha, postemergence, visual rating, scale 0 to 100 (0 no effect, 100 complete control), 13 to 15 days
[18] = 125 g ai/ha, postemergence, visual rating, scale 0 to 100 (0 no effect, 100 complete control)
[19] = Postemergence, 62 g ai/ha, scale 0 to 100 (0 no effect, 100 complete control), 13 to 15 days
[20] = 500 g ai/ha, 0 to 100 scale where 0 is no effect and 100 is complete control

Question: With `FC(F)c1cnn(-c2c(Br)cccc2Oc2ncc(Cl)cn2)c1` [Compound 232] as the molecule, how does the “Plant response rating (0 to 100), Oilseed Rape” value [1, 16] read?
Answer: The value was 5.

Question: And the “Oilseed Rape plant response rating” value [1, 17]?
Answer: The value was 50.

Question: What about the “Plant response rating, Oilseed Rape” value [1, 18] of the same molecule?
Answer: Its value is 60.

Question: And the “Plant response rating, Oilseed Rape” value [1, 19]?
Answer: Its value is 5.

Question: What about the “Plant response rating (0 to 100), Galium” value [2, 16] of the same molecule?
Answer: The value was 65.

Question: What about the “Galium plant response rating” value [2, 17] of the same molecule?
Answer: Its value is 70.

Question: And the “Plant response rating, Galium” value [2, 18]?
Answer: The value was 95.

Question: What about the “Plant response rating, Galium” value [2, 19] of the same molecule?
Answer: Its value is 80.

Question: And the “Plant response rating (0 to 100), Lambsquarters” value [3, 16]?
Answer: Its value is 55.

Question: And the “Lambsquarters plant response rating” value [3, 17]?
Answer: Its value is 60.

Question: What about the “Plant response rating, Lambsquarters” value [3, 18] of the same molecule?
Answer: The value was 75.

Question: What about the “Plant response rating, Lambsquarters” value [3, 19] of the same molecule?
Answer: The value was 70.

Question: What about the “Plant response rating (0 to 100), Oat, Wild” value [4, 16] of the same molecule?
Answer: Its value is 0.

Question: And the “Oat, Wild plant response rating” value [4, 17]?
Answer: Its value is 0.

Question: What about the “Plant response rating, Oat, Wild” value [4, 18] of the same molecule?
Answer: Its value is 20.

Question: What about the “Plant response rating, Oat, Wild” value [4, 19] of the same molecule?
Answer: The value was 5.

Question: What about the “Wheat plant response rating (0 to 100 scale)” value ([5]; 125 g ai/ha) of the same molecule?
Answer: Its value is 0.

Question: And the “Wheat plant response rating” value [5, 20]?
Answer: Its value is 10.

Question: And the “Velvetleaf plant response rating” value ([6]; 125 g ai/ha)?
Answer: Its value is 80.

Question: What about the “Plant response rating, Velvetleaf” value ([6]; 500 g ai/ha) of the same molecule?
Answer: The value was 100.

Question: What about the “Pigweed plant response rating” value ([7]; 125 g ai/ha) of the same molecule?
Answer: The value was 100.

Question: What about the “Plant response rating, Pigweed” value ([7]; 500 g ai/ha) of the same molecule?
Answer: The value was 100.

Question: And the “Plant response rating (0 to 100), Barnyardgrass” value [8, 16]?
Answer: Its value is 10.

Question: What about the “Barnyardgrass plant response rating” value [8, 17] of the same molecule?
Answer: Its value is 5.

Question: What about the “Plant response rating, Barnyardgrass” value [8, 18] of the same molecule?
Answer: Its value is 20.

Question: What about the “Plant response rating, Barnyardgrass” value ([8]; Postemergence, 62 g ai/ha, scale 0 to 100 (0 no effect, 100 complete control)) of the same molecule?
Answer: The value was 10.

Question: What about the “Foxtail, Giant plant response rating (0 to 100 scale)” value ([9]; 125 g ai/ha) of the same molecule?
Answer: The value was 90.

Question: What about the “Foxtail, Giant plant response rating” value [9, 20] of the same molecule?
Answer: Its value is 90.

Question: And the “Barnyardgrass plant response rating (0 to 100 scale, 0 is no effect, 100 is complete control)” value ([10]; 125 g ai/ha)?
Answer: The value was 60.

Question: What about the “Barnyardgrass plant response rating” value [10, 20] of the same molecule?
Answer: The value was 100.

Question: What about the “Plant response rating (0 to 100), Waterhemp” value [11, 16] of the same molecule?
Answer: Its value is 65.

Question: And the “Waterhemp plant response rating” value [11, 17]?
Answer: The value was 65.

Question: What about the “Plant response rating, Waterhemp” value [11, 18] of the same molecule?
Answer: The value was 85.

Question: What about the “Plant response rating, Waterhemp” value [11, 19] of the same molecule?
Answer: Its value is 70.

Question: What about the “Plant response rating (0 to 100), Crabgrass, Large” value [12, 16] of the same molecule?
Answer: Its value is 5.

Question: What about the “Crabgrass, Large plant response rating” value [12, 17] of the same molecule?
Answer: The value was 5.

Question: What about the “Plant response rating, Crabgrass, Large” value [12, 18] of the same molecule?
Answer: Its value is 5.

Question: And the “Plant response rating, Crabgrass, Large” value [12, 19]?
Answer: Its value is 5.

Question: And the “Pigweed plant response rating (0 to 100 scale)” value ([13]; 125 g ai/ha)?
Answer: The value was 100.

Question: And the “Pigweed plant response rating” value [13, 20]?
Answer: The value was 100.

Question: What about the “Plant response rating (0 to 100), Blackgrass” value [14, 16] of the same molecule?
Answer: Its value is 10.

Question: What about the “Blackgrass plant response rating” value [14, 17] of the same molecule?
Answer: The value was 0.

Question: And the “Plant response rating, Blackgrass” value [14, 18]?
Answer: Its value is 25.

Question: What about the “Plant response rating, Blackgrass” value [14, 19] of the same molecule?
Answer: Its value is 5.

Question: What about the “Plant response rating (0 to 100), Johnsongrass” value [15, 16] of the same molecule?
Answer: The value was 0.

Question: And the “Johnsongrass plant response rating” value [15, 17]?
Answer: Its value is 0.

Question: What about the “Plant response rating, Johnsongrass” value [15, 18] of the same molecule?
Answer: Its value is 5.

Question: What about the “Plant response rating, Johnsongrass” value [15, 19] of the same molecule?
Answer: The value was 5.
